Reference: PubChem BioAssay AID248 (DTP/NCI, 2004)
Where “and” joins values, the source holds several entries; their conditions need not be identical. Identical values can stand only once. Inconclusive results and toxic doses are left out. Rule as the data show it: active = T/C of 150% or more; inactive = T/C below 125%. Square brackets hold non-standard residues; d marks the D form. Peptide text beside a SMILES is read from it. * marks the point of attachment. ξ: configuration not given here. ξF = NC(Cc1ccccc1)C(=O)O; Cbz = O=C(OCc1ccccc1)*; CH2Cl = ClC*

Test system: L1210 leukemia ip in BDF1 mice, survival T/C
Test: NCI In Vivo Anticancer Drug Screen. Data for tumor model L1210 Leukemia (intraperitoneal) in B6D2F1 (BDF1) mice
Details: endpoint: mean survival time, higher = longer survival
Procedure, shortened: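 Each compound was tested against a transplantable tumor grown in mice. The endpoint was survival, with treated animals benchmarked against vehicle controls as a simple ratio.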

[1] = dose: 100.0 mg/kg/injection, schedule: Q01DX009 (ip), vehicle: saline with Tween-80
[2] = dose: 200.0 mg/kg/injection, schedule: Q01DX009 (ip), vehicle: saline with Tween-80
[3] = dose: 12.5 mg/kg/injection, schedule: Q01DX009 (ip), vehicle: saline with Tween-80
[4] = dose: 25.0 mg/kg/injection, schedule: Q01DX009 (ip), vehicle: saline with Tween-80
[5] = dose: 100.0 mg/kg/injection, schedule: Q04DX003 (ip), vehicle: saline with Tween-80
[6] = dose: 200.0 mg/kg/injection, schedule: Q04DX003 (ip), vehicle: saline with Tween-80
[7] = dose: 400.0 mg/kg/injection, schedule: Q04DX003 (ip), vehicle: saline with Tween-80
[8] = dose: 100.0 mg/kg/injection, schedule: Q04DX003 (ip), vehicle: Klucel (hydroxypropylcellulose) (HPC)
[9] = dose: 100.0 mg/kg/injection, schedule: Q04DX003 (ip), vehicle: saline
[10] = dose: 200.0 mg/kg/injection, schedule: Q04DX003 (ip), vehicle: saline
[11] = dose: 400.0 mg/kg/injection, schedule: Q04DX003 (ip), vehicle: saline
[12] = dose: 100.0 mg/kg/injection, schedule: Q01DX001 (ip), vehicle: saline
[13] = dose: 200.0 mg/kg/injection, schedule: Q01DX001 (ip), vehicle: saline
[14] = dose: 100.0 mg/kg/injection, schedule: Q04DX002 (ip), vehicle: saline with Tween-80
[15] = dose: 50.0 mg/kg/injection, schedule: Q04DX002 (ip), vehicle: saline
[16] = dose: 100.0 mg/kg/injection, schedule: Q04DX002 (ip), vehicle: saline
[17] = dose: 200.0 mg/kg/injection, schedule: Q04DX002 (ip), vehicle: saline
[18] = dose: 400.0 mg/kg/injection, schedule: Q04DX002 (ip), vehicle: saline
[19] = dose: 50.0 mg/kg/injection, schedule: Q01DX001 (ip), vehicle: saline
[20] = dose: 400.0 mg/kg/injection, schedule: Q01DX001 (ip), vehicle: saline

Measured: T/C

CC(C)(Cc1ccccc1)C(C(=O)O)C(=O)O
inactive: dose: 100.0 mg/kg/injection, schedule: Q01DX001 (ip), vehicle: gum acacia 91 % of control | dose: 200.0 mg/kg/injection, schedule: Q01DX001 (ip), vehicle: gum acacia 95 % of control

O=C(Sc1ccc([N+](=O)[O-])cc1)C(=O)Sc1ccc([N+](=O)[O-])cc1
inactive: [1] 87 % of control | [2] 97 % of control

O=C1NC2C(NC(=O)N2Cl)N1Cl (stereo not given)
inactive: [3] 97 % of control | [4] 100 % of control | dose: 25.0 mg/kg/injection, schedule: Q04DX003 (ip), vehicle: saline with Tween-80 94 % of control | dose: 40.0 mg/kg/injection, schedule: Q01DX Z (ip), vehicle: carboxymethylcellulose (CMC) 92 % of control | dose: 50.0 mg/kg/injection, schedule: Q01DX009 (ip), vehicle: saline with Tween-80 94 % of control | dose: 50.0 mg/kg/injection, schedule: Q04DX003 (ip), vehicle: saline with Tween-80 95 % of control | [1] 94 % of control | [5] 105 % of control

CC(C)CCCC(C)C1CCC2(C)C3=C(C(=O)CC12C)C1(C)CCC(O)C(C)(C)C1/C(=N\O)C3=O (stereo not given)
inactive: [5] 94 % of control | [6] 96 % of control | [7] 97 % of control

Cc1nc(N)[nH]c(=O)c1CCc1ccccc1
inactive: [8] 100 % of control | dose: 200.0 mg/kg/injection, schedule: Q04DX003 (ip), vehicle: Klucel (hydroxypropylcellulose) (HPC) 94 % of control | dose: 400.0 mg/kg/injection, schedule: Q04DX003 (ip), vehicle: Klucel (hydroxypropylcellulose) (HPC) 100 % of control

O=C1C=Cc2ccc(O)cc2C1=O
inactive: dose: 0.57 mg/kg/injection, schedule: Q01DX Z (ip), vehicle: saline 107 % of control | dose: 0.86 mg/kg/injection, schedule: Q01DX Z (ip), vehicle: saline 109 % of control | dose: 1.3 mg/kg/injection, schedule: Q01DX Z (ip), vehicle: saline 113 % of control | dose: 2.0 mg/kg/injection, schedule: Q01DX Z (ip), vehicle: saline 101 % of control and 104 % of control | dose: 3.0 mg/kg/injection, schedule: Q01DX Z (ip), vehicle: saline 89 % of control | dose: 4.5 mg/kg/injection, schedule: Q01DX Z (ip), vehicle: saline 95 % of control | dose: 6.7 mg/kg/injection, schedule: Q01DX Z (ip), vehicle: saline 101 % of control and 90 % of control | dose: 10.0 mg/kg/injection, schedule: Q01DX001 (ip), vehicle: acetone 104 % of control

COc1cc(O)c(C(=O)O)c(OC)c1
inactive: dose: 100.0 mg/kg/injection, schedule: Q01DX009 (ip), vehicle: other 103 % of control | [9] 104 % of control | dose: 200.0 mg/kg/injection, schedule: Q01DX009 (ip), vehicle: other 103 % of control | [10] 102 % of control | dose: 400.0 mg/kg/injection, schedule: Q01DX009 (ip), vehicle: other 101 % of control | [11] 98 % of control

Cc1cc(C(=O)CC(C)C(=O)O)cc2c1sc1ccccc12 (stereo not given)
inactive: [12] 86 % of control | [13] 100 % of control

Cc1cc(C)c(NC(=O)/C=C/C(=O)O)c(C)c1
inactive: [14] 91 % of control and 92 % of control | dose: 200.0 mg/kg/injection, schedule: Q04DX002 (ip), vehicle: saline with Tween-80 94 % of control and 99 % of control | dose: 800.0 mg/kg/injection, schedule: Q04DX002 (ip), vehicle: saline with Tween-80 103 % of control

O=C1/C(=C\c2ccc(OCc3ccccc3)c(OCc3ccccc3)c2)N2CCC1CC2
inactive: dose: 100.0 mg/kg/injection, schedule: Q04DX002 (ip), vehicle: Klucel (hydroxypropylcellulose) (HPC) 102 % of control | dose: 200.0 mg/kg/injection, schedule: Q04DX002 (ip), vehicle: Klucel (hydroxypropylcellulose) (HPC) 115 % of control | dose: 400.0 mg/kg/injection, schedule: Q04DX002 (ip), vehicle: Klucel (hydroxypropylcellulose) (HPC) 105 % of control

O=C(Nc1ccc(N(CCCl)CCCl)cc1)c1ccc([N+](=O)[O-])cc1
inactive: [15] 104 % of control | [16] 95 % of control | [17] 117 % of control | [18] 114 % of control

COCCOCCOc1ccc(Cl)cc1
inactive: [16] 92 % of control | [17] 107 % of control | [18] 88 % of control

Nc1ccc(I)cc1C(=O)O
inactive: [19] 103 % of control | [12] 103 % of control | [13] 101 % of control | [20] 97 % of control

Brc1ccc(N2N=NC3CNCC32)cc1 (stereo not given)
inactive: [5] 92 % of control | [6] 105 % of control | [7] 94 % of control

C=C1C(=O)OC2C1C(OC(=O)/C(=C/C)COC(C)=O)CC1(CO1)C1C(OC(=O)/C(=C/C)CO)C3OC3(C)C21 (stereo not given)
inactive: dose: 3.12 mg/kg/injection, schedule: Q01DX009 (ip), vehicle: alcohol 110 % of control | dose: 6.25 mg/kg/injection, schedule: Q01DX009 (ip), vehicle: alcohol 104 % of control | dose: 12.5 mg/kg/injection, schedule: Q01DX009 (ip), vehicle: alcohol 96 % of control

Cc1cc(N(CCCOS(C)(=O)=O)CCCOS(C)(=O)=O)ccc1C=Nc1ccc(-c2csc(COc3ccc(Br)cc3Br)n2)cc1
inactive: [1] 88 % of control | [2] 91 % of control | dose: 400.0 mg/kg/injection, schedule: Q01DX009 (ip), vehicle: saline with Tween-80 96 % of control

COc1cc2c(c(OC)c1OC)-c1ccc(O)c(=O)cc1C(N)CC2 (stereo not given)
inactive: dose: 6.25 mg/kg/injection, schedule: Q01DX009 (ip), vehicle: saline with Tween-80 98 % of control | [3] 100 % of control | [4] 94 % of control

O=C(CNC(=O)OCc1ccccc1)NCC(=O)NC(Cc1ccccc1)C(=O)CCl (stereo not drawn) (Cbz-Gly-Gly-[ξF]-CH2Cl)
inactive: dose: 12.0 mg/kg/injection, schedule: Q01DX001 (ip), vehicle: Klucel (hydroxypropylcellulose) (HPC) 106 % of control | dose: 25.0 mg/kg/injection, schedule: Q01DX001 (ip), vehicle: Klucel (hydroxypropylcellulose) (HPC) 97 % of control | dose: 25.0 mg/kg/injection, schedule: Q04DX003 (ip), vehicle: Klucel (hydroxypropylcellulose) (HPC) 98 % of control | dose: 50.0 mg/kg/injection, schedule: Q01DX001 (ip), vehicle: Klucel (hydroxypropylcellulose) (HPC) 108 % of control | dose: 50.0 mg/kg/injection, schedule: Q04DX003 (ip), vehicle: Klucel (hydroxypropylcellulose) (HPC) 98 % of control | [8] 104 % of control

N=C(N)c1ccc(OCCCCOc2ccc(N)cc2Cl)cc1
inactive: dose: 50.0 mg/kg/injection, schedule: Q01DX009 (ip), vehicle: Klucel (hydroxypropylcellulose) (HPC) 111 % of control | dose: 100.0 mg/kg/injection, schedule: Q01DX009 (ip), vehicle: Klucel (hydroxypropylcellulose) (HPC) 97 % of control

CC(=O)NC(NNC(NC(C)=O)(c1ccccc1)c1ccccc1)(c1ccccc1)c1ccccc1
inactive: [9] 105 % of control | [10] 102 % of control | [11] 92 % of control

O=C1C2=C(C(=O)C3=C1C1CCC3C1)C1CCC2C1
inactive: [14] 90 % of control | dose: 400.0 mg/kg/injection, schedule: Q04DX002 (ip), vehicle: saline with Tween-80 93 % of control

CCOc1ncc(N)c(OCC)n1
inactive: [19] 112 % of control | [12] 97 % of control | [13] 103 % of control | [20] 100 % of control

C[S+](C)CCCN
inactive: [12] 105 % of control | dose: 100.0 mg/kg/injection, schedule: Q01DX009 (ip), vehicle: saline 94 % of control | [9] 103 % of control | [13] 110 % of control | dose: 200.0 mg/kg/injection, schedule: Q01DX009 (ip), vehicle: saline 109 % of control | [10] 106 % of control | [20] 105 % of control | dose: 400.0 mg/kg/injection, schedule: Q01DX009 (ip), vehicle: saline 106 % of control | [11] 98 % of control

CNCCc1ccc(OC)c(OC)c1
inactive: dose: 25.0 mg/kg/injection, schedule: Q04DX002 (ip), vehicle: saline 104 % of control | [15] 107 % of control | [16] 96 % of control

CC(S(C)(=O)=O)(S(C)(=O)=O)S(C)(=O)=O
inactive: dose: 75.0 mg/kg/injection, schedule: Q01DX001 (ip), vehicle: saline with Tween-80 96 % of control | dose: 150.0 mg/kg/injection, schedule: Q01DX001 (ip), vehicle: saline with Tween-80 96 % of control | dose: 300.0 mg/kg/injection, schedule: Q01DX001 (ip), vehicle: saline with Tween-80 107 % of control
